Reference: patent US20230257385A1, “SALT AND SOLID FORMS OF TABERNANTHALOG” (priority 2021, published 2023)
Where a name gives a salt, the structure may show the parent alone.

Assay: DVS analyses of sorbate salt Form A / Form C (Example 10)
Type: physicochemical
Description: DVS analyses of Form A (Performed on batch reference: Experiment 11-Sample -A1) To determine whether Form A underwent form change at high % RH, DVS residues of Form A, from 0 to 80% RH and 0 to 90% RH, were examined. The specimens were equilibrated to constant mass, at 80% and 90% RH set-points, removed, placed in a capped vial, and analysed by XRPD and DSC. Based on the SC-XRD at 100 K, no regular voids in the crystal structure were large enough to accommodate non-crystal-bonded, molecular water with minimum probe radius of 1.4 Å.
The moisture sorption properties of the feed API were analysed by DVS Intrinsic instrument (Surface Measurement System). Approximately 20 to 50 mg of API was weighed onto an aluminium pan and loaded into the instrument equilibrated at 25° C. The sample was equilibrated under a dry atmosphere (0% relative humidity) for 60 minutes, before increasing the humidity from 0% to 30% at 5% step increment and from 30% to 90% at 10% step increment. A desorption cycle was also applied from 90% to 30% (10% step decrement) and from 30% to 0% (5% step decrement). A rate of change in mass per time unit (dm/dt) of 0.002%/min was set as the equilibrium parameter. Kinetic and isotherm graphs were calculated.
5. DVS Analyses: 0% to 90% DVS Mass Per Unit Time Equilibrated at Dm/Dt (0.0002%/Min)

SMILES: COc1ccc2c3c([nH]c2c1)CCN(C)CC3 [tabernanthalog sorbate salt]
- DVS isotherm (0% to 90% DVS, mass per unit time equilibrated at dm/dt (0.0002%/min)): slightly hygroscopic up to 80% RH
- DVS 0 to 90 to 0% RH (dm/dt <0.002%) (RH 0.0, falling leg (90 to 0)): 0.0 (0.06%)
- DVS 0 to 90 to 0% RH (dm/dt <0.002%) (RH 0.0, rising leg (0 to 90)): DVS 0 to 90 to 0% RH (dm/dt <0.002%): 0.0 (0.00%),
- DVS 0 to 90 to 0% RH (dm/dt <0.002%) (RH 5.0, falling leg (90 to 0)): 0.05%
- DVS 0 to 90 to 0% RH (dm/dt <0.002%) (RH 5.0, rising leg (0 to 90)): 0.0%
- DVS 0 to 90 to 0% RH (dm/dt <0.002%) (RH 10.0, falling leg (90 to 0)): 0.04%
- DVS 0 to 90 to 0% RH (dm/dt <0.002%) (RH 10.0, rising leg (0 to 90)): 0.01%
- DVS 0 to 90 to 0% RH (dm/dt <0.002%) (RH 15.0, falling leg (90 to 0)): 0.03%
- DVS 0 to 90 to 0% RH (dm/dt <0.002%) (RH 15.0, rising leg (0 to 90)): 0.01%
- DVS 0 to 90 to 0% RH (dm/dt <0.002%) (RH 20.0, falling leg (90 to 0)): 0.02%
- DVS 0 to 90 to 0% RH (dm/dt <0.002%) (RH 20.0, rising leg (0 to 90)): 0.02%
- DVS 0 to 90 to 0% RH (dm/dt <0.002%) (RH 25.0, falling leg (90 to 0)): 0.00%
- DVS 0 to 90 to 0% RH (dm/dt <0.002%) (RH 25.0, rising leg (0 to 90)): 0.03%
- DVS 0 to 90 to 0% RH (dm/dt <0.002%) (RH 30.0, falling leg (90 to 0)): 0.00%
- DVS 0 to 90 to 0% RH (dm/dt <0.002%) (RH 30.0, rising leg (0 to 90)): 0.03%
- DVS 0 to 90 to 0% RH (dm/dt <0.002%) (RH 40.0, falling leg (90 to 0)): 0.03%
- DVS 0 to 90 to 0% RH (dm/dt <0.002%) (RH 40.0, rising leg (0 to 90)): 0.05%
- DVS 0 to 90 to 0% RH (dm/dt <0.002%) (RH 50.0, falling leg (90 to 0)): 0.06%
- DVS 0 to 90 to 0% RH (dm/dt <0.002%) (RH 50.0, rising leg (0 to 90)): 0.07%
- DVS 0 to 90 to 0% RH (dm/dt <0.002%) (RH 60.0, falling leg (90 to 0)): 0.18%
- DVS 0 to 90 to 0% RH (dm/dt <0.002%) (RH 60.0, rising leg (0 to 90)): 0.10%
- DVS 0 to 90 to 0% RH (dm/dt <0.002%) (RH 70.0, falling leg (90 to 0)): 0.30%
- DVS 0 to 90 to 0% RH (dm/dt <0.002%) (RH 70.0, rising leg (0 to 90)): 0.14%
- DVS 0 to 90 to 0% RH (dm/dt <0.002%) (RH 80.0, falling leg (90 to 0)): 0.48%
- DVS 0 to 90 to 0% RH (dm/dt <0.002%) (RH 80.0, rising leg (0 to 90)): 0.21%
- DVS 0 to 90 to 0% RH (dm/dt <0.002%) (RH 90.0, falling leg (90 to 0)): 0.98%
- DVS 0 to 90 to 0% RH (dm/dt <0.002%) (RH 90.0, rising leg (0 to 90)): 0.98%
- form of specimens retrieved post DVS (XRPD) (at 0%, 80% and 90% RH): consistent with Form A
- water affinity (up to 90% RH (DVS)): ca. 1 % w/w
